The values that follow come from ChEMBL document CHEMBL3421601, “Rapid development of two factor IXa inhibitors from hit to lead” (Bioorg Med Chem Lett, 2015).

The target in one series is Coagulation factor IX (Homo sapiens, UniProt P00740). The series is described as follows: Inhibition of human factor 9a using CH3SO2-D-CHG-Gly-Arg-AFC.AcOH as substrate by fluorescence assay.
Series [1] addresses Voltage-gated inwardly rectifying potassium channel KCNH2 (Homo sapiens, UniProt Q12809). The series can be described thus: Inhibition of human ERG.
The target of a further series is Coagulation factor X (Homo sapiens, UniProt P00742). The series is described as follows: Inhibition of human factor 10a using n-Acetyl-KPR-AFC as substrate by fluorescence assay.
Coagulation factor X, sequence (P00742 41-179 limits assumed): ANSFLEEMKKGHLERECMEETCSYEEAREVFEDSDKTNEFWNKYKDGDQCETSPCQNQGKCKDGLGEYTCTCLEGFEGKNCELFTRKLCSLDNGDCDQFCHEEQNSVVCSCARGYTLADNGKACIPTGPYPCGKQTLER
Coagulation factor X, sequence (P00742 235-488 limits assumed): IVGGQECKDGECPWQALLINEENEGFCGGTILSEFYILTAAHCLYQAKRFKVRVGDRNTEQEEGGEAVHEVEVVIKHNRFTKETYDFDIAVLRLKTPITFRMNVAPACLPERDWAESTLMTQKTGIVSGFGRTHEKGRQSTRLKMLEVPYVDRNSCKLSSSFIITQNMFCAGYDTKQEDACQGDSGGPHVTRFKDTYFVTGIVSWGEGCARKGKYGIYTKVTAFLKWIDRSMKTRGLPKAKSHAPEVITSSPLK
The nature of series [2]: Inhibition of CYP (unknown origin). Type of series: ADME. The settings on record: human.

Coagulation factor IX, sequence (P00740 47-191 limits assumed): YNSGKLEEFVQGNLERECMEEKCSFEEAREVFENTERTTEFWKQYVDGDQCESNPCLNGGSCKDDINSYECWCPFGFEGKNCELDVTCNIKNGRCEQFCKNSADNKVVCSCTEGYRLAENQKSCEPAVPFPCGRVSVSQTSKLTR
Coagulation factor IX, sequence (P00740 227-461 limits assumed): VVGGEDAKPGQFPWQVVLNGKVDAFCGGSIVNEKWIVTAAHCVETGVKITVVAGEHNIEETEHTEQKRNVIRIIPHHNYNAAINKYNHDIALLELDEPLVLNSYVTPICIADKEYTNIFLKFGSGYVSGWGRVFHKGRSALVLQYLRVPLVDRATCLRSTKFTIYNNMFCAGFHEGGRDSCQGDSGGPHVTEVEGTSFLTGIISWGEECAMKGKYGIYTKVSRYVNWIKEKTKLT
Voltage-gated inwardly rectifying potassium channel KCNH2, sequence (Q12809 whole entry): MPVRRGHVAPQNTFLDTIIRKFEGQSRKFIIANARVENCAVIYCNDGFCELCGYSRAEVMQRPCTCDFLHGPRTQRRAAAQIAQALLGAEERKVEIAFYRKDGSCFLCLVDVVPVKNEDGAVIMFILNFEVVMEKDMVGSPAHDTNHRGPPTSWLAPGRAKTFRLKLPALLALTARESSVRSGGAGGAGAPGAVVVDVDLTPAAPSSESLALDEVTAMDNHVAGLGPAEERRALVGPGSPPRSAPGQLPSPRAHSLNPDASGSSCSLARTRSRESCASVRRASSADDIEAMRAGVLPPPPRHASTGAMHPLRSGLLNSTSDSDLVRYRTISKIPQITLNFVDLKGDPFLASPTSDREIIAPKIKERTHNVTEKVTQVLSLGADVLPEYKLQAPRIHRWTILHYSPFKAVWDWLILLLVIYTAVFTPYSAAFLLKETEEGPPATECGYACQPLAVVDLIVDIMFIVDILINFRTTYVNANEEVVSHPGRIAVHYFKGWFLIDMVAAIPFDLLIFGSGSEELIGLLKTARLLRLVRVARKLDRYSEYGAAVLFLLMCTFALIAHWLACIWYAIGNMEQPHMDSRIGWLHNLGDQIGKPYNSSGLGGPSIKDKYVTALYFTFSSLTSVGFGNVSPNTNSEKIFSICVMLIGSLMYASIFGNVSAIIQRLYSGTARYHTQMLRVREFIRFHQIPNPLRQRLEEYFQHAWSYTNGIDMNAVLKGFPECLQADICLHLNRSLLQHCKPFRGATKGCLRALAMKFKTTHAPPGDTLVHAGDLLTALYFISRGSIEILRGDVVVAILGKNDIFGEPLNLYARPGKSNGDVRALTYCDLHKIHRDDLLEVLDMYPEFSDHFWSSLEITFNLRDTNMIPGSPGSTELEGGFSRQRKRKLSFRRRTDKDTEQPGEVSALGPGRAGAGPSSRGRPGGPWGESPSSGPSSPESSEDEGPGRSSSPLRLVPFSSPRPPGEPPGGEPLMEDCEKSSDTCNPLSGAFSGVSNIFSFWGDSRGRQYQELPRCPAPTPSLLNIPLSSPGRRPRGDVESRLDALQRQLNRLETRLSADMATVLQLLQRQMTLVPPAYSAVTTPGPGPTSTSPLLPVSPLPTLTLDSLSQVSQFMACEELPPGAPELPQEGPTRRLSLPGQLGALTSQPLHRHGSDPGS

Usually Ki stands for the equilibrium dissociation constant of an inhibitor or competing ligand from its target. A higher Ki goes with lower affinity. `Cc1ccc(O)c2c3c(nn12)CCC(C)(NC(=O)c1ccc(-n2ccnc2)cc1Cl)C3` (configuration not stated) had a Ki on Coagulation factor IX of 0.595 µM.

In the case of `Cc1ccc(O)c2c3c(nn12)CCC(C)(NC(=O)c1ccc(-n2nccn2)cc1Cl)C3` (configuration not stated), on Coagulation factor IX, the inhibition constant Ki is 30.3 µM.

The compound `Cc1cc2nc(CCNC(=O)c3ccc(-n4ccnc4)cc3Cl)[nH]c2cc1C` came in with an inhibition constant (Ki) at Coagulation factor IX of 5.58 µM.

`Cc1ccc(O)c2c3c(nn12)CCC(C)(NC(=O)c1ccc(F)cc1)C3` (configuration not stated) returned an inhibition constant Ki on Coagulation factor IX of 18.3 µM.

In turn, `Cc1cc2nc([C@H](CNC(=O)c3ccc(-n4cnnc4)cc3Cl)c3ccccc3)[nH]c2cc1C` had a Ki on Coagulation factor IX of 0.52 µM.

Take `Cc1cc2nc(CCNC(=O)c3ccc(-n4cncn4)cc3Cl)[nH]c2cc1C`: the inhibition constant Ki on Coagulation factor IX was 2.12 µM.

`Cc1ccc(O)c2c3c(nn12)CCC(C)(NC(=O)c1ccc(-n2cnnc2)cc1Cl)C3` (configuration not stated): the values for the inhibitory constant (Ki) on Coagulation factor IX and at Coagulation factor X were 0.09 µM and 12 µM, respectively. The “inhibition (INH)” value in series [1] and in series [2] was “Not Active” throughout.

The compound `Cc1ccc(O)c2c3c(nn12)CCC(C)(NC(=O)c1ccc(-n2cncn2)cc1Cl)C3` (configuration not stated) had an inhibitory constant (Ki) on Coagulation factor IX of 0.156 µM.

With `Cc1ccc(O)c2c3c(nn12)CCC(C)(NC(=O)c1ccc(-n2cccn2)cc1Cl)C3` (configuration not stated), the affinity at Coagulation factor IX, expressed as Ki, was 4.4 µM.

Compound `Cc1cc2nc(CCNC(=O)c3ccc(-n4ccnn4)cc3Cl)[nH]c2cc1C` yielded an inhibition constant Ki at Coagulation factor IX of 130 µM.

For `Cc1cc2nc(CCNC(=O)c3ccc(-n4nccn4)cc3Cl)[nH]c2cc1C`, on Coagulation factor IX, the inhibition constant (Ki) was over 145 µM.

In the case of `Cc1cc2nc([C@@H](CNC(=O)c3ccc(-n4cnnc4)cc3Cl)c3ccccc3)[nH]c2cc1C`, the Ki amounted to 0.016 µM at Coagulation factor IX and 0.39 µM at Coagulation factor X. The “inhibition (INH)” value in series [1] and in series [2] was “Not Active” each time.

For the compound `Cc1ccc(O)c2c3c(nn12)CCC(C)(NC(=O)c1ccc(-n2ccnn2)cc1)C3` (configuration not stated), affinity on Coagulation factor IX was put at a Ki of 0.462 µM.

Consider `Cc1ccc(O)c2c3c(nn12)CCC(C)(NC(=O)c1ccc(C#N)cc1)C3` (configuration not stated), for which the inhibition constant (Ki) on Coagulation factor IX came to 20.6 µM.

On to `Cc1ccc(O)c2c3c(nn12)CCC(C)(NC(=O)c1ccccc1Cl)C3` (configuration not stated), for which, at Coagulation factor IX, the affinity, expressed as Ki, was 6.34 µM.

`Cc1ccc(O)c2c3c(nn12)CCC(C)(NC(=O)c1ccc(C#N)cc1F)C3` (configuration not stated): the Ki at Coagulation factor IX is 2 µM; at Coagulation factor X, over 62.5 µM.

Compound `Cc1cc2nc(CCNC(=O)c3ccc(-n4cnnc4)cc3)[nH]c2cc1C` showed a Ki at Coagulation factor X of over 62.5 µM.

At Coagulation factor IX, `Cc1cc2nc(C(C)CNC(=O)c3ccc(-n4cnnc4)cc3Cl)[nH]c2cc1C` (racemic) gave a Ki of 0.34 µM.

For `Cc1cc2nc(CCNC(=O)c3ccc(C#N)cc3F)[nH]c2cc1C`, at Coagulation factor IX, the Ki is over 145 µM.

In the case of `Cc1cc2nc(C[C@@H](C)NC(=O)c3ccc(-n4cnnc4)cc3Cl)[nH]c2cc1C`, the affinity at Coagulation factor IX corresponds to a Ki of 35 µM.

As for `Cc1cc2nc(C[C@H](C)NC(=O)c3ccc(-n4cnnc4)cc3Cl)[nH]c2cc1C`, at Coagulation factor IX, the affinity corresponds to a Ki of 55.4 µM.

On to `Cc1ccc(O)c2c3c(nn12)CCC(C)(NC(=O)c1ccc(-n2ccnn2)cc1Cl)C3` (configuration not stated), for which, on Coagulation factor IX, affinity was put at a Ki of 0.937 µM.

Turning to `Cc1cc2nc(CCNC(=O)c3ccccc3Cl)[nH]c2cc1C`, the inhibition constant (Ki) at Coagulation factor IX was over 145 µM.

In turn, `Cc1cc2nc(CCNC(=O)c3ccccc3-n3cnnc3)[nH]c2cc1C` had a Ki at Coagulation factor IX of over 145 µM.

`Cc1ccc(O)c2nc(CCNC(=O)c3ccc(-n4cnnc4)cc3Cl)[nH]c12`: the Ki on Coagulation factor IX amounted to 131 µM.
